Data from US20250100996A1, “HETEROCYCLOALKYL AND HETEROARYL COMPOUNDS AND PHARMACEUTICAL COMPOSITIONS THAT MODULATE IKZF2” (Plexium, Inc., priority 2021, published 2025).

Tests used:
IKZF3 (Aiolos) = biological target: T1, IKZF3 (Aiolos) (Homo sapiens, UniProt Q9UKT9); assay: IKZF3 reporter degradation assay (HEK 293T IKZF3-mNeonGreen reporter cell line); assay type: cell-based; settings: 24 hours incubation
T1 construct: Leu-Asp junction (codons ctcgac before the linker); mScarlet (behind P2A) (C, cleaved yes); expressed in transfected cells
T1 sequence (Q96SW2 whole entry partner): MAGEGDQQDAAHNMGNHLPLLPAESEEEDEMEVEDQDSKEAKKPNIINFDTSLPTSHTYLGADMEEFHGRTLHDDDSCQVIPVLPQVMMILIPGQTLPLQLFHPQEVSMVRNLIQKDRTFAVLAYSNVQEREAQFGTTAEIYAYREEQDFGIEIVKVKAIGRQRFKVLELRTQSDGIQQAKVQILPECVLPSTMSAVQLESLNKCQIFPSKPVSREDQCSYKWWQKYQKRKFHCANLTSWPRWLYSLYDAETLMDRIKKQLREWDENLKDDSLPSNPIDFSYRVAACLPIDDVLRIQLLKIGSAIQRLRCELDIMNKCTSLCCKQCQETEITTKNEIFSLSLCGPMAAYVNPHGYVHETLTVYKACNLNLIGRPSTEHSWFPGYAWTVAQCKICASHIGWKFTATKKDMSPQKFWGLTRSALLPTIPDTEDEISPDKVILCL
T1 sequence (Q16531 whole entry partner): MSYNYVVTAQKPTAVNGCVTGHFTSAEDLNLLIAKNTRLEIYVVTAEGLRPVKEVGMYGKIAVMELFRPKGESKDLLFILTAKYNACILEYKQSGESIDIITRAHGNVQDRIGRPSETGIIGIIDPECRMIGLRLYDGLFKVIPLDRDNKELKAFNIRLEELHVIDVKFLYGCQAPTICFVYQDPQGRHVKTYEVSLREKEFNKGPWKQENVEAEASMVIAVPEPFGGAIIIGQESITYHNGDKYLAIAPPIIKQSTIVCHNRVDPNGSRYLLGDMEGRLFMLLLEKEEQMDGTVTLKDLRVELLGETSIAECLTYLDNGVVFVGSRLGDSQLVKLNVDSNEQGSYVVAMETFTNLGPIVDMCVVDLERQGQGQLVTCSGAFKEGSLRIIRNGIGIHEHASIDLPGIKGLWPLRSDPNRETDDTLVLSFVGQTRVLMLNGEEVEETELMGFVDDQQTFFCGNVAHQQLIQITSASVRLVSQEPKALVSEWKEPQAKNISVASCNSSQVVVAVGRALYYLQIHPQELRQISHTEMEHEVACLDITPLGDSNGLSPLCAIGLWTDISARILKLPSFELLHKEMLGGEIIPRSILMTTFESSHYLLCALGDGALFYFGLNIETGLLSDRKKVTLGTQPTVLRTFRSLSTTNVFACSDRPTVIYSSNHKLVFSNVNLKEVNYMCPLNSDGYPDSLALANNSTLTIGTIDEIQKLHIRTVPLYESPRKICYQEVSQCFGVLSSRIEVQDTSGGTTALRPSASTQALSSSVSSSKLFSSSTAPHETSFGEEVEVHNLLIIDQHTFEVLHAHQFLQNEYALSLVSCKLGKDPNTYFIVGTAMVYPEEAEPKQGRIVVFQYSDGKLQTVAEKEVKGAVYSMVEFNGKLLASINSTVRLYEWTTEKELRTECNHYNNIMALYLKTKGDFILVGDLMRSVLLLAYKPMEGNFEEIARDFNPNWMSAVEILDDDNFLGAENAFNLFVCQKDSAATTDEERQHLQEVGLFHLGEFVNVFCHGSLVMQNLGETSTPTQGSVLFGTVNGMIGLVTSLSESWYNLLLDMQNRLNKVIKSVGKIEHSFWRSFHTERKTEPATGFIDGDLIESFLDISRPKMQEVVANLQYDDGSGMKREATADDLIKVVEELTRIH
T1 sequence (Q9UKT9 whole entry): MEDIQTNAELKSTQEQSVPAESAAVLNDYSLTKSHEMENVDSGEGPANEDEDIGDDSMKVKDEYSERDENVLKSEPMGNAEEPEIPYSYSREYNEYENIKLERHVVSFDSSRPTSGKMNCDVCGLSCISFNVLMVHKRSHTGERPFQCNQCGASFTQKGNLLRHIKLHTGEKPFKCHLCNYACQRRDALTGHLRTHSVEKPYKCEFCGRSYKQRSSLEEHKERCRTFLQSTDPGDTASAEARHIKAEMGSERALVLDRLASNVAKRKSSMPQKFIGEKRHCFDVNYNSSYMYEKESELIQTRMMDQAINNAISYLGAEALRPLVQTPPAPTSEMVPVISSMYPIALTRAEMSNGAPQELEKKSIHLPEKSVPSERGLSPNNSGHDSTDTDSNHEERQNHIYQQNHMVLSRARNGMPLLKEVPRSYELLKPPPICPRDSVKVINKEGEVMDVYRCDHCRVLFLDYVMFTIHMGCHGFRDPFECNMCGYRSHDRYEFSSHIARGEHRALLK
Method in brief: (§1)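 DC50 values come from four-parameter logistic regression of percent mNeonGreen-positive cells, imaged with mScarlet-based segmentation after 24 h compound exposure at 37° C. Quadruplicate wells had at most 0.5% DMSO. Reporters are C-terminal IKZF-mNeonGreen fusions with P2A-mScarlet, stably expressed in clonal HEK 293T lines.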

IKZF2 (Helios) [1] = biological target: T2, IKZF2 (Helios) (Homo sapiens, UniProt Q9UKS7); assay: IKZF2 reporter degradation assay (HEK 293T IKZF2-mNeonGreen reporter cell line); assay type: cell-based; settings: 24 hours incubation
T2 construct: Leu-Asp junction (codons ctcgac before the linker); mScarlet (behind P2A) (C, cleaved yes); expressed in transfected cells
T2 sequence (Q9UKS7 whole entry): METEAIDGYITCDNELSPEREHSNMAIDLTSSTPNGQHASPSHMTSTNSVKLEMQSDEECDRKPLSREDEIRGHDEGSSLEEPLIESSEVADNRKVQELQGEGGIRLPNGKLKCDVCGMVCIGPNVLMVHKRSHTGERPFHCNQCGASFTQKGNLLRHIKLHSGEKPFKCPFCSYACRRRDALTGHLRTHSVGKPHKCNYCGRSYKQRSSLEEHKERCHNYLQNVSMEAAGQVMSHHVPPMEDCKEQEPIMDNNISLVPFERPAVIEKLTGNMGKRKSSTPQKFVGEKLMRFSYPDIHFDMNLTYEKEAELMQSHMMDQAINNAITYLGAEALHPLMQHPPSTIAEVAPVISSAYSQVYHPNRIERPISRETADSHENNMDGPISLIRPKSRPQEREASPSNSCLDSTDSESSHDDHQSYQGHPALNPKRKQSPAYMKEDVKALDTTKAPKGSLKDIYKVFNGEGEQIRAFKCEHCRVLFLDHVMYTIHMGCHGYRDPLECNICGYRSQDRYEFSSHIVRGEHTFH
T2 sequence (Q96SW2 whole entry, further chain): as the sequence (Q96SW2 whole entry partner) above
T2 sequence (Q16531 whole entry partner): as the sequence (Q16531 whole entry partner) above
Method in brief: as §1

IKZF2 (Helios) [2] = biological target: T3, IKZF2 (Helios) (Homo sapiens, UniProt Q96SW2+Q9UKS7); assay: as above; assay type: cell-based; settings: HEK-293T, 24 h, 1 μM compound, HEK 293T IKZF2 reporter cells, 24 hours incubation
T3 construct: Leu-Asp junction (codons ctcgac before the linker); mScarlet (behind P2A) (C, cleaved yes); expressed in transfected cells
T3 sequence (Q9UKS7 whole entry): as the sequence (Q9UKS7 whole entry) above
T3 sequence (Q96SW2 whole entry): as the sequence (Q96SW2 whole entry partner) above
T3 sequence (Q16531 whole entry partner): as the sequence (Q16531 whole entry partner) above
Method in brief: as §1

IKZF1 (Ikaros) = biological target: T4, IKZF1 (Ikaros) (Homo sapiens, UniProt Q13422); assay: IKZF1 reporter degradation assay (HEK 293T IKZF1-mNeonGreen reporter cell line); assay type: cell-based; settings: 24 hours incubation
T4 construct: mScarlet (behind P2A) (C, cleaved yes); expressed in transfected cells
T4 sequence (Q96SW2 whole entry partner): as the sequence (Q96SW2 whole entry partner) above
T4 sequence (Q16531 whole entry partner): as the sequence (Q16531 whole entry partner) above
T4 sequence (Q13422 whole entry): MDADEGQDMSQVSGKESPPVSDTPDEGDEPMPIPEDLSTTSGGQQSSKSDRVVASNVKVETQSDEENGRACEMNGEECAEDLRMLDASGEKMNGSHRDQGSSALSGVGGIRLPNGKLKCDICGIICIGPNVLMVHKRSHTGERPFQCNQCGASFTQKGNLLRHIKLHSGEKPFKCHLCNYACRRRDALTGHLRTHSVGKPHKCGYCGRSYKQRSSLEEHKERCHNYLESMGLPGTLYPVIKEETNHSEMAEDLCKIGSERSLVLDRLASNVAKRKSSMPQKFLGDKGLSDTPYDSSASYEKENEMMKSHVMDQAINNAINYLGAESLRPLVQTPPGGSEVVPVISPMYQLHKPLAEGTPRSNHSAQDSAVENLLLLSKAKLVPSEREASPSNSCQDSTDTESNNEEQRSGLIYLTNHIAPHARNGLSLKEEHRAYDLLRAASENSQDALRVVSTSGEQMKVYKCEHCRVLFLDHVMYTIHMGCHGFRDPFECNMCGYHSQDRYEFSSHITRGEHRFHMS
Text: Polycistronic plasmids were constructed for the mammalian expression of fluorescent reporter fusions of human transcription factors IKZF1 (Ikaros), IKZF2 (Helios), and IKZF3 (Aiolos). The respective protein sequences had their C-terminal end joined to a GGGGS linker repeated three times followed by mNeonGreen, P2A sequence, and mScarlet. The DNA sequences of the open reading frames are as follows:
IKZF1, IKZF2, and IKZF3 constructs were cloned into the UCOE Hygromycin expression vectors (Millipore Sigma). Reporter constructs were transfected using cationic lipid reagents into adherent HEK 293T cells and stable integrants were selected by treatment with 200 μg/mL hygromycin B. Clonal populations were obtained from the population of stable integrants either by limiting dilution or fluorescence activated cell sorting.
The clonal stable cell lines were maintained under constant 200 μg/mL hygromycin B selection while being passaged for use in the degradation assays. […] The fluorescence intensity of the IKZF1/2/3-mNeonGreen (FITC channel) and mScarlet (PE channel) reporters were routinely analyzed by flow cytometry to confirm consistent expression levels between experiments.
The IKZF1/IKZF2/IKZF3 degradation assays were carried out by harvesting the HEK 293T reporter cell lines and resuspending the cells in media formulated for reduced background fluorescence (FluoroBrite; Thermo Fisher). The respective cell lines were seeded at a density of 4000 cells/well into black-walled 384-well optical grade assay tissue culture plates. The cells were incubated overnight at 37° C. to allow for attachment to the assay plate. Dilutions of the compounds were prepared in DMSO from 10 mM compound stocks. The assay plates were treated with appropriate concentrations of the compounds by dispensing the DMSO dilutions in quadruplicate wells with an upper limit of 0.5% final DMSO.
After 24 hours incubation with the compounds, the assay plates were imaged on an ImageXpress Pico microscopy system (cells maintained at 37° C. during imaging) to obtain the fluorescent readouts. The assay plates were imaged in the FITC and Tetramethylrhodamine (TRITC) channels to obtain the mNeonGreen fluorescence intensity (reporter degradation data) and mScarlet fluorescence intensity (for cell segmentation). 293T-IKZF1 and 293T-IKZF3 reporter cell lines were imaged with exposures of 500 milliseconds (ms) for both FITC and TRITC channels, while the 293T-IKZF2 reporter cell line was imaged with exposures of 1000 ms for FITC and 1250 ms for TRITC. The resulting data was analyzed with Cell Reporter Xpress software using the 2-channel cell scoring analysis with a “percent positive” readout. The TRITC channel was selected for the “nuclei” segmentation with a threshold of 20 while the FITC channel was selected for the “Marker 1” segmentation and a threshold of 100 for the IKZF1 and IKZF3 reporter lines. […] The minimum segmentation width was set to 6 micrometers and the maximum segmentation width was set to 15 micrometers for all cell lines. The DC50 calculations were determined by regression to best fit four-parameter logistic curves using GraphPad Prism.

[3] = biological target: T5, human E3 ligase component cereblon (CRBN) (Homo sapiens, UniProt Q96SW2); assay: Cereblon (CRBN) target engagement, NanoBRET TE Intracellular E3 Ligase Assay in transfected HEK-293T cells; settings: read-out: CRBN Binding EC50
T5 construct: host or cells: HEK293T
T5 sequence (Q96SW2 whole entry): as the sequence (Q96SW2 whole entry partner) above
T5 sequence (Q16531 whole entry partner): as the sequence (Q16531 whole entry partner) above
Method in brief: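 Tracer displacement was read as the 610/450 nm BRET signal after 2 h at 37° C with an 11-point dilution series, typically 10 μM to 100 pM. Live HEK-293T cells expressed NanoLuc fused N-terminal to human CRBN together with DDB1. IC50 was fitted with a four-parameter logistic model.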

[4] = HEK 293T IKZF3-mNeonGreen reporter
[5] = HEK 293T IKZF2-mNeonGreen reporter
[6] = HEK 293T IKZF1-mNeonGreen reporter

| DC50 (IKZF3 (Aiolos); HEK 293T IKZF3 reporter cells) | DC50 (IKZF2 (Helios) [1]; HEK 293T IKZF2 reporter cells) | inhibition at 1 µM (IKZF2 (Helios) [2]) | DC50 (IKZF1 (Ikaros); HEK 293T IKZF1 reporter cells) | DC50 (IKZF3 (Aiolos); [4]) | DC50 (IKZF2 (Helios) [1]; [5]) | DC50 (IKZF1 (Ikaros); [6]) | EC50 [3] | Structure (SMILES) |
| --- | --- | --- | --- | --- | --- | --- | --- | --- |
| > 30 µM | 0.0286 µM | 84.6% | > 30 µM | – | – | – | – | COc1ncc(C2CN(C3CCCCC3Oc3ccc4c(c3)CN(C3CCC(=O)NC3=O)C4=O)C2)cn1 (stereo not drawn) [Compound 76-B, 3-(5-((2-(3-(2-methoxypyrimidin-5-yl)azetidin-1-yl)cyclohexyl)oxy)-1-oxoisoindolin-2-yl)piperidine-2,6-dione] |
| > 30 µM | 0.0111 µM | 84.8% | > 30 µM | – | – | – | – | Cc1cc(C2CN(C3CCCCC3Oc3ccc4c(c3)CN(C3CCC(=O)NC3=O)C4=O)C2)ccn1 (stereo not drawn) [Compound 56-B, 3-(5-((2-(3-(2-methylpyridin-4-yl)azetidin-1-yl)cyclohexyl)oxy)-1-oxoisoindolin-2-yl)piperidine-2,6-dione] |
| > 30 µM | 0.525 µM | 32.1% | > 30 µM | – | – | – | – | O=C1CCC(N2Cc3cc(OC4CCCCC4N4CC(c5ccnc(C(F)(F)F)c5)C4)ccc3C2=O)C(=O)N1 (stereo not drawn) [Compound 1-B, 3-(1-oxo-5-((2-(3-(2-(trifluoromethyl)pyridin-4-yl)azetidin-1-yl)cyclohexyl)oxy)isoindolin-2-yl)piperidine-2,6-dione] |
| > 30 µM | 0.0207 µM | 78.2% | > 30 µM | – | – | – | – | COc1cc(C2CN(C3CCCCC3Oc3ccc4c(c3)CN(C3CCC(=O)NC3=O)C4=O)C2)ccn1 (stereo not drawn) [Compound 11-B, 3-(5-((2-(3-(2-methoxypyridin-4-yl)azetidin-1-yl)cyclohexyl)oxy)-1-oxoisoindolin-2-yl)piperidine-2,6-dione] |
| > 30 µM | 0.0478 µM | 74% | > 30 µM | – | – | – | – | O=C1CCC(N2Cc3cc(OC4CCCCC4N4CC(c5ccncc5)C4)ccc3C2=O)C(=O)N1 (stereo not drawn) [Compound 31-B, 3-(1-oxo-5-((2-(3-(pyridin-4-yl)azetidin-1-yl)cyclohexyl)oxy)isoindolin-2-yl)piperidine-2,6-dione] |

More lines, now with the values behind:

| Structure (SMILES) | DC50 (IKZF3 (Aiolos); HEK 293T IKZF3 reporter cells) | DC50 (IKZF2 (Helios) [1]; HEK 293T IKZF2 reporter cells) | inhibition at 1 µM (IKZF2 (Helios) [2]) | DC50 (IKZF1 (Ikaros); HEK 293T IKZF1 reporter cells) | DC50 (IKZF3 (Aiolos); [4]) | DC50 (IKZF2 (Helios) [1]; [5]) | DC50 (IKZF1 (Ikaros); [6]) | EC50 [3] |
| --- | --- | --- | --- | --- | --- | --- | --- | --- |
| O=C1CCC(N2Cc3cc(OC4CCCCC4N4CC(c5c[nH]c6ccccc56)C4)ccc3C2=O)C(=O)N1 (stereo not drawn) [Compound 61-B, 3-(5-((2-(3-(1H-indol-3-yl)azetidin-1-yl)cyclohexyl)oxy)-1-oxoisoindolin-2-yl)piperidine-2,6-dione] | > 30 µM | 0.026 µM | 55.8% | > 30 µM | – | – | – | – |
| O=C1CCC(N2Cc3cc(OC4CCCCC4N4CC(c5cnc6ccccc6n5)C4)ccc3C2=O)C(=O)N1 (stereo not drawn) [Compound 21-B, 3-(1-oxo-5-((2-(3-(quinoxalin-2-yl)azetidin-1-yl)cyclohexyl)oxy)isoindolin-2-yl)piperidine-2,6-dione] | > 30 µM | 0.0382 µM | 72.5% | > 30 µM | – | – | – | – |
| O=C1CCC(N2Cc3cc(OC4CCCCC4N4CC(c5ncc(Cl)cn5)C4)ccc3C2=O)C(=O)N1 (stereo not drawn) [Compound 26-B, 3-(5-((2-(3-(5-chloropyrimidin-2-yl)azetidin-1-yl)cyclohexyl)oxy)-1-oxoisoindolin-2-yl)piperidine-2,6-dione] | > 30 µM | 0.525 µM | 78.4% | > 30 µM | – | – | – | – |
| O=C1CCC(N2Cc3cc(O[C@H]4CCCC[C@@H]4N4CC(n5cccn5)C4)ccc3C2=O)C(=O)N1 (stereo partly drawn) [Compound 81-B, 3-(5-(((1S,2S)-2-(3-(1H-pyrazol-1-yl)azetidin-1-yl)cyclohexyl)oxy)-1-oxoisoindolin-2-yl)piperidine-2,6-dione] | > 30 µM | 0.0965 µM | 78% | > 30 µM | – | – | – | – |
| O=C1CCC(N2Cc3cc(OC4CCCCC4N4CC(c5ncccn5)C4)ccc3C2=O)C(=O)N1 (stereo not drawn) [Compound 46-B, 3-(1-oxo-5-((2-(3-(pyrimidin-2-yl)azetidin-1-yl)cyclohexyl)oxy)isoindolin-2-yl)piperidine-2,6-dione] | > 30 µM | 0.232 µM | 39% | > 30 µM | – | – | – | – |
| O=C1CCC(N2Cc3cc(O[C@H]4CCCC[C@@H]4N4CC(n5ccnc5)C4)ccc3C2=O)C(=O)N1 (stereo partly drawn) [Compound 176-B, 3-(5-(((1S,2S)-2-(3-(1H-imidazol-1-yl)azetidin-1-yl)cyclohexyl)oxy)-1-oxoisoindolin-2-yl)piperidine-2,6-dione] | – | – | – | – | > 30 µM | 2.1 µM | > 30 µM | 0.899 µM |
| COc1ccc(C2CN([C@H]3CCCC3Oc3ccc4c(c3)CN(C3CCC(=O)NC3=O)C4=O)C2)cn1 (mixture of isomers) [Compound 202-B, Rac-3-(5-(((trans)-2-(3-(6-methoxypyridin-3-yl)azetidin-1-yl)cyclopentyl)oxy)-1-oxoisoindolin-2-yl)piperidine-2,6-dione] | – | – | – | – | > 30 µM | > 30 µM | > 30 µM | 0.029 µM |
| O=C1CCC(N2Cc3cc(OC4CCC[C@@H]4N4CC(c5cccnc5)C4)ccc3C2=O)C(=O)N1 (mixture of isomers) [Compound 208-B, Rac-3-(1-oxo-5-(((trans)-2-(3-(pyridin-3-yl)azetidin-1-yl)cyclopentyl)oxy)isoindolin-2-yl)piperidine-2,6-dione] | – | – | – | – | > 30 µM | > 30 µM | > 30 µM | 0.076 µM |
| O=C1CCC(N2Cc3cc(OC4CCCC4N4CC(c5ncc(Cl)cn5)C4)ccc3C2=O)C(=O)N1 (stereo not drawn) [Compound 200-B, 3-(5-((2-(3-(5-chloropyrimidin-2-yl)azetidin-1-yl)cyclopentyl)oxy)-1-oxoisoindolin-2-yl)piperidine-2,6-dione] | – | – | – | – | > 30 µM | > 30 µM | > 30 µM | 0.02 µM |
| Cc1cnc(C2CN([C@H]3CCCC[C@@H]3Oc3ccc4c(c3)CN(C3CCC(=O)NC3=O)C4=O)C2)o1 (mixture of isomers) [Compound 175-B, Rac-3-(5-(((trans)-2-(3-(5-methyloxazol-2-yl)azetidin-1-yl)cyclohexyl)oxy)-1-oxoisoindolin-2-yl)piperidine-2,6-dione] | – | – | – | – | > 30 µM | > 30 µM | > 30 µM | 0.022 µM |
| O=C1CCC(N2Cc3cc(OC4CCC[C@@H]4N4CC(c5ccncc5)C4)ccc3C2=O)C(=O)N1 (mixture of isomers) [Compound 206-B, Rac-3-(1-oxo-5-(((trans)-2-(3-(pyridin-4-yl)azetidin-1-yl)cyclopentyl)oxy)isoindolin-2-yl)piperidine-2,6-dione] | – | – | – | – | > 30 µM | > 30 µM | > 30 µM | 0.071 µM |
| O=C1CCC(N2Cc3cc(OC4CCC[C@@H]4N4CC(c5cncnc5)C4)ccc3C2=O)C(=O)N1 (mixture of isomers) [Compound 197-B, Rac-3-(1-oxo-5-(((trans)-2-(3-(pyrimidin-5-yl)azetidin-1-yl)cyclopentyl)oxy)isoindolin-2-yl)piperidine-2,6-dione] | – | – | – | – | > 30 µM | > 30 µM | > 30 µM | 0.138 µM |
| O=C1CCC(N2Cc3cc(OC4CCC[C@@H]4N4CC(c5ccccn5)C4)ccc3C2=O)C(=O)N1 (mixture of isomers) [Compound 210-B, Rac-3-(1-oxo-5-(((trans)-2-(3-(pyridin-2-yl)azetidin-1-yl)cyclopentyl)oxy)isoindolin-2-yl)piperidine-2,6-dione] | – | – | – | – | > 30 µM | > 30 µM | > 30 µM | 0.122 µM |
